{
  "source": "patent US20190336496A1",
  "about": "“SELECTIVE BCL-2 INHIBITORS IN COMBINATION WITH AN ANTI-PD-1 OR AN ANTI-PD-L1 ANTIBODY FOR THE TREATMENT OF CANCERS” (AbbVie Inc., priority 2018, published 2019)",
  "assay_in_all_cases": "Venetoclax cell killing (CellTiter-Glo)",
  "assay_type_in_all_cases": "cell-based",
  "key": {"22Rv1": {"test_system": "22Rv1", "details": "Homo sapiens, 22Rv1, 48 h; Prostate; 10% FBS; 2 days", "description": "(§1) Solid tumor cell lines were obtained from American Type Culture Collection (ATCC, Manassas, Va.) or the National Cancer Institute (NCI) and cultured in humidified incubators at 37° C. (5% CO2) in appropriate media (specified by supplier) supplemented with 10% fetal bovine serum (FBS) or 10% human serum (HS). 24 hours after plating into 96-well or 384-well tissue culture plates, venetoclax was added to cells at various concentrations (typically 0.010 to 10 μM in half-log increments) to perform concentration-response assessments of cell killing. After 1 to 5 days of culture in the presence of venetoclax, cell viability was assessed using CellTiter-Glo® reagent (Promega). IC50 values were determined by non-linear regression analysis of the concentration response data (Table 5 and Table 6)."}, "A431": {"test_system": "A431", "details": "Homo sapiens, A-431, 120 h; Epidermoid carcinoma (skin); 10% FBS; 5 days", "description": "as §1"}, "A549": {"test_system": "A549", "details": "Homo sapiens, A549, 72 h; Lung; 10% FBS; 3 days", "description": "as §1"}, "C32": {"test_system": "C32", "details": "Homo sapiens, C32, 120 h; Melanoma; 10% FBS; 5 days", "description": "as §1"}, "COLO-320DM": {"test_system": "COLO-320DM", "details": "Homo sapiens, 120 h, Colorectal, 10% FBS, 5 days", "description": "as §1"}, "COLO-668": {"test_system": "COLO-668", "details": "Homo sapiens, COLO-668, 120 h; Colorectal; 10% FBS; 5 days", "description": "as §1"}, "Calu-1": {"test_system": "Calu-1", "details": "Homo sapiens, Calu-1, 72 h; Lung; 10% FBS; 3 days", "description": "as §1"}, "Calu-6": {"test_system": "Calu-6", "details": "Homo sapiens, Calu-6, 72 h; Lung; 10% FBS; 3 days", "description": "as §1"}, "DLD-1": {"test_system": "DLD-1", "details": "Homo sapiens, DLD-1, 120 h; Colorectal; 10% FBS; 5 days", "description": "as §1"}, "DU4475": {"test_system": "DU4475", "details": "Homo sapiens, DU-4475, 120 h; Breast Cancer; 10% FBS; 5 days", "description": "as §1"}, "HCC827": {"test_system": "HCC827", "details": "Homo sapiens, HCC827, 72 h; Lung; 10% FBS; 3 days", "description": "as §1"}, "HCT-116": {"test_system": "HCT-116", "details": "Homo sapiens, HCT-116, 120 h; Colorectal; 10% FBS; 5 days", "description": "as §1"}, "LS411N": {"test_system": "LS411N", "details": "Homo sapiens, LS-411N, 120 h; Colorectal; 10% FBS; 5 days", "description": "as §1"}, "MDA-MB-468": {"test_system": "MDA-MB-468", "details": "Homo sapiens, MDA-MB-468, 48 h; Breast Cancer; 10% FBS; 2 days", "description": "as §1"}, "NCI-H1048": {"test_system": "NCI-H1048", "details": "Homo sapiens, NCI-H1048, 72 h; Lung; 10% FBS; 3 days", "description": "as §1"}, "NCI-H1417": {"test_system": "NCI-H1417", "details": "Homo sapiens, NCI-H1417, 48 h; Lung; 10% HS; 2 days", "description": "as §1"}, "NCI-H1836": {"test_system": "NCI-H1836", "details": "Homo sapiens, NCI-H1836, 48 h; Lung; 10% HS; 2 days", "description": "as §1"}, "NCI-H1993": {"test_system": "NCI-H1993", "details": "Homo sapiens, NCI-H1993, 72 h; Lung; 10% FBS; 3 days", "description": "as §1"}, "NCI-H460": {"test_system": "NCI-H460", "details": "Homo sapiens, NCI-H460, 72 h; Lung; 10% FBS; 3 days", "description": "as §1"}, "NCI-H508": {"test_system": "NCI-H508", "details": "Homo sapiens, NCI-H508, 72 h; Colorectal; 10% FBS; 3 days", "description": "as §1"}, "NCI-H522": {"test_system": "NCI-H522", "details": "Homo sapiens, NCI-H522, 72 h; Lung; 10% FBS; 3 days", "description": "as §1"}, "NCI-H661": {"test_system": "NCI-H661", "details": "Homo sapiens, NCI-H661, 72 h; Lung; 10% FBS; 3 days", "description": "as §1"}, "NCI-H847": {"test_system": "NCI-H847", "details": "Homo sapiens, 24 h; Lung; 10% FBS; 1 day", "description": "as §1"}, "RKO": {"test_system": "RKO", "details": "Homo sapiens, 120 h, Colorectal, 10% FBS, 5 days", "description": "as §1"}, "SJSA-1": {"test_system": "SJSA-1", "details": "Homo sapiens, SJSA-1, 120 h; Osteosarcoma; 10% FBS; 5 days", "description": "as §1"}, "SKBR3": {"test_system": "SKBR3", "details": "Homo sapiens, SK-BR-3, 72 h; Breast Cancer; 10% FBS; 3 days", "description": "as §1"}, "SW1463": {"test_system": "SW1463", "details": "Homo sapiens, SW1463, 120 h; Colorectal; 10% FBS; 5 days", "description": "as §1"}, "SW48": {"test_system": "SW48", "details": "Homo sapiens, SW48, 120 h; Colorectal; 10% FBS; 5 days", "description": "as §1"}, "SW948": {"test_system": "SW948", "details": "Homo sapiens, SW948, 120 h; Colorectal; 10% FBS; 5 days", "description": "as §1"}, "WM-115": {"test_system": "WM-115", "details": "Homo sapiens, WM-115, 120 h; Melanoma; 10% FBS; 5 days", "description": "as §1"}},
  "data": [
    {"smiles": "CC1(C)CCC(CN2CCN(c3ccc(C(=O)NS(=O)(=O)c4ccc(NCC5CCOCC5)c([N+](=O)[O-])c4)c(Oc4cnc5[nH]ccc5c4)c3)CC2)=C(c2ccc(Cl)cc2)C1", "note": "[Compound (I), venetoclax]", "values": [
      {"measurement": "IC50", "setting": "22Rv1", "result": "> 10", "unit": "µM"},
      {"measurement": "IC50", "setting": "A431", "result": 4.35, "unit": "µM"},
      {"measurement": "IC50", "setting": "A549", "result": 3.19, "unit": "µM"},
      {"measurement": "IC50", "setting": "C32", "result": "> 10", "unit": "µM"},
      {"measurement": "IC50", "setting": "COLO-320DM", "result": "> 10", "unit": "µM"},
      {"measurement": "IC50", "setting": "COLO-668", "result": "> 10", "unit": "µM"},
      {"measurement": "IC50", "setting": "Calu-1", "result": "> 10", "unit": "µM"},
      {"measurement": "IC50", "setting": "Calu-6", "result": "> 10", "unit": "µM"},
      {"measurement": "IC50", "setting": "DLD-1", "result": "> 10", "unit": "µM"},
      {"measurement": "IC50", "setting": "DU4475", "result": "> 10", "unit": "µM"},
      {"measurement": "IC50", "setting": "HCC827", "result": "> 10", "unit": "µM"},
      {"measurement": "IC50", "setting": "HCT-116", "result": "> 10", "unit": "µM"},
      {"measurement": "IC50", "setting": "LS411N", "result": 5.1, "unit": "µM"},
      {"measurement": "IC50", "setting": "MDA-MB-468", "result": "> 10", "unit": "µM"},
      {"measurement": "IC50", "setting": "NCI-H1048", "result": "> 10", "unit": "µM"},
      {"measurement": "IC50", "setting": "NCI-H1417", "result": "> 5", "unit": "µM"},
      {"measurement": "IC50", "setting": "NCI-H1836", "result": "> 5", "unit": "µM"},
      {"measurement": "IC50", "setting": "NCI-H1993", "result": 3.83, "unit": "µM"},
      {"measurement": "IC50", "setting": "NCI-H460", "result": "> 10", "unit": "µM"},
      {"measurement": "IC50", "setting": "NCI-H508", "result": 4.45, "unit": "µM"},
      {"measurement": "IC50", "setting": "NCI-H522", "result": "> 10", "unit": "µM"},
      {"measurement": "IC50", "setting": "NCI-H661", "result": "> 10", "unit": "µM"},
      {"measurement": "IC50", "setting": "NCI-H847", "result": "> 10", "unit": "µM"},
      {"measurement": "IC50", "setting": "RKO", "result": "> 10", "unit": "µM"},
      {"measurement": "IC50", "setting": "SJSA-1", "result": "> 10", "unit": "µM"},
      {"measurement": "IC50", "setting": "SKBR3", "result": 4.42, "unit": "µM"},
      {"measurement": "IC50", "setting": "SW1463", "result": "> 10", "unit": "µM"},
      {"measurement": "IC50", "setting": "SW48", "result": "> 10", "unit": "µM"},
      {"measurement": "IC50", "setting": "SW948", "result": "> 10", "unit": "µM"},
      {"measurement": "IC50", "setting": "WM-115", "result": 4.96, "unit": "µM"}
    ]}
  ]
}
